Measurements published in ChEMBL document CHEMBL6074694, “4-Oxo-β-lactams as Covalent Inhibitors of the Mitochondrial Intramembrane Protease PARL” (ACS Med Chem Lett, 2024).
Activity calls are given as the source filed them. The rule behind the calls is not given here.

How the values were obtained:
[1] = molecular target: T1, Presenilin-associated rhomboid-like protein, mitochondrial (Homo sapiens, UniProt Q9H300); test: Inhibition of PARL (unknown origin) using Ac-RRRAVFKLA-aminomethyl coumarin as substrate preincubated for 30 mins followed by substrate addition and measured after 20 mins by plate reader assay
T1 sequence (Q9H300 whole entry): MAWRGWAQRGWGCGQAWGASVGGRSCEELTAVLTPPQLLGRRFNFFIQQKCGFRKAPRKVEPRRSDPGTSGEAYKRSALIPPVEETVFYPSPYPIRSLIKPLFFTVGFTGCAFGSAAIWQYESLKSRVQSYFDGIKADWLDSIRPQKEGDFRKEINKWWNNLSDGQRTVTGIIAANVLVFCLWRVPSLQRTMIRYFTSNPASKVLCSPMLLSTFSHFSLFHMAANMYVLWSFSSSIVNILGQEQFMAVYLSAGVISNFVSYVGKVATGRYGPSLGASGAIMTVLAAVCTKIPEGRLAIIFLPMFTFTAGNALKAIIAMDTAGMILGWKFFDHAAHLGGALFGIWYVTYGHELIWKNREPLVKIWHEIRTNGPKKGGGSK

[2] = Inhibition of recombinant human RHBDL2 using Ac-PVAKA-7-amino-4-methylcoumarin-3-(N-octyl)-acetamide as substrate preincubated for 30 mins followed by substrate addition and measured after 20 mins by plate reader assay
[3] = (§1) Inhibition of FLAG-tagged PARL (unknown origin) overexpressed in HEK293-T-REx cells assessed as reduction in substrate cleavage using PGAM5-Myc as substrate incubated for overnight by densitometry assay; format: cell-based, Homo sapiens
HEK293-T-REx = test: as §1; format: cell-based; settings: Homo sapiens

Row | IC50 [1] [nM] | SMILES | other results
1 | 2600 | CCC1(CC)C(=O)N(c2ccc(CN3CCN(C(c4ccc(F)cc4)c4ccc(F)cc4)CC3)cc2)C1=O | 
2 | 260 | CCC1(CC)C(=O)N(c2ccc(CN3CCN(c4ccnc5ccc(Br)cc45)CC3)cc2)C1=O | IC50 [2]: 35000 nM
3 | 890 | CCC1(CC)C(=O)N(c2cccc(CN3CCN(c4ccc(Br)cc4)CC3)c2)C1=O | 
4 | 160 | CCC1(CC)C(=O)N(Cc2ccc(C(=O)OCc3ccccc3)cc2)C1=O | EC50 [3]: 220 nM
5 | 1000 | CCC1(CC)C(=O)N(c2cccc(CN3CCN(Cc4ccc(Br)cc4)CC3)c2)C1=O | 
6 | 1930 | CCC1(CC)C(=O)N(c2cccc(CN3CCN(Cc4ccc(OC)cc4)CC3)c2)C1=O | 
7 | 150 | CCC1(CC)C(=O)N(c2ccc(CN(Cc3ccccc3)Cc3ccccc3)cc2)C1=O | EC50 [3]: 300 nM
8 | 1430 | CCC1(CC)C(=O)N(c2ccc(CN3CCN(Cc4ccc(Br)cc4)CC3)cc2)C1=O | IC50 [2]: 1900 nM
9 | 380 | CCC1(CC)C(=O)N(c2ccc(CN3CCN(c4ccc(OC)cc4)CC3)cc2)C1=O | 
10 |  | CCC1(Cc2ccccc2)C(=O)N(OS(=O)(=O)c2ccc(C)cc2)C1=O | inhibition (HEK293-T-REx): inactive
11 | 560 | CCC1(CC)C(=O)N(c2ccc(CN3CCc4cc5c(cc4C3)OCO5)cc2)C1=O | 
12 | 480 | CCC1(CC)C(=O)N(c2ccc(CN3CCN(c4cc(C)nc5ccc(Br)cc45)CC3)cc2)C1=O | 
13 | 490 | CCC1(CC)C(=O)N(c2ccc(CN3CCN(c4ccc(Br)cc4)CC3)cc2)C1=O | IC50 [2]: 21000 nM
